This is an account of results in ChEMBL document CHEMBL3046070, “New N-arylamino biquinoline derivatives: microwave-assisted synthesis and their antimicrobial activities” (2013).

In brackets after ≈: the same amount, converted by molar mass.

By MIC is commonly meant the least concentration at which growth counts as inhibited.

Common to all, as to type: functional
One assay has as its system Escherichia coli. In words: Antibacterial activity against Escherichia coli MTCC 443 assessed as growth inhibition after overnight incubation by NCCLS broth microdilution method.
The next assay has as its system Aspergillus fumigatus. In words: Antifungal activity against Aspergillus fumigatus MTCC 3008 assessed as growth inhibition after overnight incubation by NCCLS broth microdilution method.
Another assay has as its system Streptococcus pneumoniae. Description: Antibacterial activity against Streptococcus pneumoniae MTCC 1936 assessed as growth inhibition after overnight incubation by NCCLS broth microdilution method. A general note: Broth dilution looks for growth in wells or tubes with falling amounts of substance.
The next assay relates to Salmonella typhi. Description: Antibacterial activity against Salmonella enterica subsp. enterica serovar Typhi MTCC 98 assessed as growth inhibition after overnight incubation by NCCLS broth microdilution method.
For another assay, the system named is Vibrio cholerae. In words: Antibacterial activity against Vibrio cholerae MTCC 3906 assessed as growth inhibition after overnight incubation by NCCLS broth microdilution method.
The subject of a further assay is Candida albicans. In words: Antifungal activity against Candida albicans MTCC 227 assessed as growth inhibition after overnight incubation by NCCLS broth microdilution method.
In a further assay the test system is Bacillus subtilis. Description: Antibacterial activity against Bacillus subtilis MTCC 441 assessed as growth inhibition after overnight incubation by NCCLS broth microdilution method.
The test system of another assay is Clostridium tetani. In words: Antibacterial activity against Clostridium tetani MTCC 449 assessed as growth inhibition after overnight incubation by NCCLS broth microdilution method.

`CCOC(=O)C1=C(N)N(Nc2ccc(Cl)cc2)C2=C(C(=O)CC(C)(C)C2)C1c1cc2cc(OC)ccc2nc1Cl` (stereo not given): the MIC is 100 µg/mL (≈ 172 µM) in the assay on Escherichia coli; > 1000 µg/mL in the assay on Aspergillus fumigatus; 250 µg/mL (≈ 430 µM) with Streptococcus pneumoniae; 100 µg/mL (≈ 172 µM) in the assay on Salmonella typhi; 250 µg/mL (≈ 430 µM) in the assay with Vibrio cholerae; 500 µg/mL (≈ 860 µM) with Candida albicans. In addition, the MIC in the assay on Bacillus subtilis and in the assay on Clostridium tetani was 250 µg/mL (≈ 430 µM) in each case.

For the compound `CCOC(=O)C1=C(N)N(Nc2ccc(C)cc2)C2=C(C(=O)CC(C)(C)C2)C1c1cc2cc(OC)ccc2nc1Cl` (stereo not given), the MIC in the assay with Escherichia coli is 125 µg/mL (≈ 223 µM); in the assay on Aspergillus fumigatus it was > 1000 µg/mL; in the assay on Streptococcus pneumoniae it was 100 µg/mL (≈ 178 µM); in the assay on Salmonella typhi, 62.5 µg/mL (≈ 111 µM); in the assay with Vibrio cholerae it was 500 µg/mL (≈ 891 µM); in the assay on Candida albicans it was 500 µg/mL (≈ 891 µM). Besides, the minimal inhibitory concentration (MIC) worked out at 200 µg/mL (≈ 356 µM) with Bacillus subtilis and 125 µg/mL (≈ 223 µM) with Clostridium tetani.

`CCOC(=O)C1=C(N)N(Nc2ccc(Br)cc2)C2=C(C(=O)CC(C)(C)C2)C1c1cc2ccccc2nc1Cl` (stereo not given): the MIC in the assay with Escherichia coli was 100 µg/mL (≈ 168 µM); in the assay on Aspergillus fumigatus, > 1000 µg/mL; in the assay on Streptococcus pneumoniae it was 25 µg/mL (≈ 42 µM); in the assay on Salmonella typhi, 50 µg/mL (≈ 83.9 µM); in the assay on Vibrio cholerae, 500 µg/mL (≈ 839 µM); in the assay on Candida albicans, > 1000 µg/mL. Besides, the MIC with Bacillus subtilis amounted to 250 µg/mL (≈ 420 µM); with Clostridium tetani, 500 µg/mL (≈ 839 µM).

Take `CCOC(=O)C1=C(N)N(Nc2ccc(F)cc2)C2=C(C(=O)CC(C)(C)C2)C1c1cc2cc(Cl)ccc2nc1Cl` (stereo not given): the MIC is 200 µg/mL (≈ 351 µM) with Escherichia coli; > 1000 µg/mL in the assay with Aspergillus fumigatus; 500 µg/mL (≈ 878 µM) in the assay on Streptococcus pneumoniae; 250 µg/mL (≈ 439 µM) with Salmonella typhi; 500 µg/mL (≈ 878 µM) with Vibrio cholerae; 1000 µg/mL (≈ 1760 µM) in the assay on Candida albicans. The MIC in the assay on Bacillus subtilis came to 500 µg/mL (≈ 878 µM); in the assay with Clostridium tetani, 250 µg/mL (≈ 439 µM).

Turning to `CCOC(=O)C1=C(N)N(Nc2ccc(OC)cc2)C2=C(C(=O)CC(C)(C)C2)C1c1cc2cc(OC)ccc2nc1Cl` (stereo not given), the MIC with Escherichia coli came to 200 µg/mL (≈ 347 µM); in the assay with Aspergillus fumigatus, 500 µg/mL (≈ 866 µM); in the assay with Streptococcus pneumoniae, 250 µg/mL (≈ 433 µM); with Salmonella typhi, 200 µg/mL (≈ 347 µM); in the assay on Vibrio cholerae, 250 µg/mL (≈ 433 µM); in the assay with Candida albicans, 1000 µg/mL (≈ 1730 µM). Moreover, the MIC in the assay with Bacillus subtilis and with Clostridium tetani was 250 µg/mL (≈ 433 µM) throughout.
